Results reported in patent US20080149878A1, “Fluorosurfactants” (priority 2005, published 2008).

Experiment: Determination of the surface tension (Krüss tensiometer K12, ring)
Assay type: physicochemical
Conditions: 20° C.
From the text: [table] Further details on the method can be obtained from the publication by the European Commission Classification, Packaging and Labelling of Dangerous Substances in the European Union, Part II—Test Methods, Annex V—Methods for the Determination of Physico-Chemical Properties, Toxicity and Ecotoxicity, Part A, Surface Tension (A.5), January 1997, pages 51-57, and from the OECD Guideline for the Testing of Chemicals, Section 1, Physical-Chemical Properties, Method 115, pages 1-7, adopted: 27, July 95, the contents of which in this respect expressly belong to the disclosure content of the present application.

Surface tension (1.0020 g/l (4.101E−03 mol/l) in deionised water) [mN/m] | Surface tension (2.0015 g/l (8.192E−03 mol/l) in deionised water) [mN/m] | Surface tension (3.0010 g/l (1.228E−02 mol/l) in deionised water) [mN/m] | SMILES | Surface tension (0.5015 g/l (1.527E−03 mol/l) in deionised water) [mN/m] | Surface tension (1.0000 g/l (3.046E−03 mol/l) in deionised water) [mN/m] | Surface tension (2.0005 g/l (6.093E−03 mol/l) in deionised water) [mN/m]
66.13 | 57.70 | 52.61 | CCCCCCCCCCS(=O)(=O)[O-].[Na+] [Decane-sulfonic acid Na salt, sodium decanesulfonate] | – | – | –
– | – | – | O=S(=O)(O)CCCCCCCCCCOC(F)(F)F [Example 5, Sodium 10-trifluoromethoxydecane-1-sulfonate] | 59.95 | 52.55 | 42.61
